experiment: Relative sweetness of hydrophobic sweetener compounds (factor used for the Sucrose Equivalent calculation); details: Sucrose Equivalent = weight percent in the chewing gum multiplied by relative sweetness
Source text: It should be appreciated that due to the slow release of hydrophobic sweeteners from the chewing gum, it is believed that higher levels of the hydrophobic sweeteners as compared to typical water soluble sweeteners may be necessary to provide the desired level of sweetness or sweetness intensity. The amount can suitably vary depending on any number of factors, such as the desired level of sweetness and the relative sweetness intensity specific to the hydrophobic sweetener compound. As detailed below, the relative sweetness can vary depending on the type of hydrophobic sweetener compound. In an embodiment, chewing gum includes the hydrophobic sweetener compound in an amount ranging from about 50 to about 5000 Sucrose Equivalents. The Sucrose Equivalent factor is determined by multiplying the weight percent of the hydrophobic compound in the chewing gum by its relative sweetness. By way of example and not limitation, the following tables illustrate a variety of hydrophobic sweetener compounds representative of the hydrophobic sweetener compounds of Formulas I–XI, as previously discussed. The tables also indicate the relative sweetness of the hydrophobic sweetener compounds. As previously discussed, this factor can be utilized to calculate the Sucrose Equivalent calculation which relates to the amount of hydrophobic sweetener in the chewing gum.

Row | SMILES | Relative Sweetness
1 | COc1ccc(CCC(=O)c2cccc(C(=O)O)c2)cc1O [Compound 25] | 80
2 | COc1ccc(C2COc3ccccc3C2)cc1O (stereo not shown) [Compound 1] | 200
3 | COc1ccc(C2CSc3ccccc3S2)cc1O (stereo not shown) [Compound 12] | 450
4 | O=C(O)c1ccccc1C(=O)c1ccc(O)c(O)c1 [Compound 22] | 100
5 | COc1ccc(C2SCc3ccccc3S2)cc1O (stereo not shown) [Compound 11] | 1000
6 | Oc1ccc(C2OCc3ccccc3S2)cc1O (stereo not shown) [Compound 17] | 200
7 | COc1ccc(C(=O)c2ccccc2C(=O)O)cc1O [Compound 21] | 250
8 | O=C(O)c1ccccc1C(=O)c1ccc(O)cc1 [Compound 30] | 200
9 | COc1ccc(C2CSc3cc(O)ccc3O2)cc1O (stereo not shown) [Compound 20] | 500
10 | COc1ccc(C(=O)c2ccccc2C(=O)[O-])cc1.[Na+] [Compound 36] | 150
11 | COc1ccc(OC(=O)c2ccccc2C(=O)O)cc1 [Compound 34] | 10
12 | COc1ccc(CCc2ccccc2)cc1O [Compound 27] | 300
13 | COc1ccc(C2Cc3ccccc3CO2)cc1O (stereo not shown) [Compound 2] | 350
14 | COc1ccc(C2CCc3ccccc3O2)cc1O (stereo not shown) [Compound 3] | 350
15 | COc1ccc([S+]([O-])c2ccccc2C(=O)O)cc1 (stereo not shown) [Compound 23] | 50
16 | COc1ccc(C2CSc3ccccc3O2)cc1O (stereo not shown) [Compound 7] | 250

Row | SMILES | Relative Sweetness
17 | COc1ccc(C2CS(=O)(=O)c3ccccc3O2)cc1O (stereo not shown) [Compound 19] | 50
18 | COc1ccc(C2COc3ccccc3S2)cc1O (stereo not shown) [Compound 9] | 2000
19 | COc1ccc(CCC(=O)c2c(O)cc(O)cc2O)cc1O [Compound 24] | 665
20 | COc1ccc(C2OCc3ccccc3S2)cc1O (stereo not shown) [Compound 8] | 9000
21 | Oc1cccc(C2OCc3ccccc3S2)c1 (stereo not shown) [Compound 18] | 100
22 | COc1ccc(OCc2ccccc2C(=O)O)cc1O [Compound 26] | 10
23 | COc1ccc(C2CCc3ccccc3S2)cc1O (stereo not shown) [Compound 10] | 200
24 | COc1ccc(C2Oc3ccccc3S2)cc1O (stereo not shown) [Compound 14] | 300
25 | COc1ccc(C2Oc3ccccc3O2)cc1O [Compound 15] | 150
26 | COc1ccc(C2OCc3ccccc3S2)cc1S (stereo not shown) [Compound 16] | 50
27 | COc1ccc(C2OCc3ccccc3O2)cc1O (stereo not shown) [Compound 5] | 3000
28 | COc1ccc(C2Oc3ccccc3CS2)cc1O (stereo not shown) [Compound 6] | 500
29 | COc1ccc(C2COc3ccccc3O2)cc1O (stereo not shown) [Compound 4] | 450
30 | COc1ccc(C2Sc3ccccc3S2)cc1O [Compound 13] | 200
31 | COc1ccc(C(=O)/C=C/C(=O)O)cc1 [Compound 33] | 50
